Assays:
PTPN9 = molecular target: T1, PTPN9 (Homo sapiens, UniProt P43378); assay: PTPN9 enzyme inhibition with DiFMUP substrate; assay type: biochemical; conditions: DiFMUP 220 µM, PTPN9 0.15 nM; NA: no activity
T1 construct: made in house; host or cells: Escherichia coli Rosetta (DE3)
T1 sequence (P43378 277-581): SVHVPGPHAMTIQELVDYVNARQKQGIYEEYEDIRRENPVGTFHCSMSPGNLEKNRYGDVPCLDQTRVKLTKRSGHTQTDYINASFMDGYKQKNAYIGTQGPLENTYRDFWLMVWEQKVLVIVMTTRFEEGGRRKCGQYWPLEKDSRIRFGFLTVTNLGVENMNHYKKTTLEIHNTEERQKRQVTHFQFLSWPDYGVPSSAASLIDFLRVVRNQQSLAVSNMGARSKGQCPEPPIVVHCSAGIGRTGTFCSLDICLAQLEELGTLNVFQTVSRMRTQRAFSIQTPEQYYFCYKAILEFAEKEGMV
Experimental: (§1) The purification and kinetic analyses of PTPN9 and DUSP9 (Ser277–581) were performed following methods described in the literature, with slight modifications. PAGE analysis data and enzyme kinetic constants are presented in Figure S1 and Table S1, respectively. Enzyme activity in the presence or absence of the compounds was measured using DiFMUP, a representative PTP fluorogenic substrate. First, the inhibitory effects of compounds 1–3 were evaluated using 50 µM PTPN9 and 20 µM DUSP9. There was an increase in the inhibitory activity of compound 1 for both enzymes as the number of CH2 units increased from 9 to 14 (Figure 2A,B).
(§2) Next, the IC50 values of the compounds, which induce a 50% inhibition of DiFMUP hydrolytic enzyme activity, were determined (Table 1). The IC50 values were determined from the dose–response enzyme inhibition curves of each compound. The dose–response curves for compounds 1e and 1f against PTPN9 and DUSP9, respectively, are presented in Figure 2C,D. Dose–response curves were also obtained for the other compounds (Figures S2 and S3).
(§3) The methods employed for PTP overexpression and purification have been described in a previous study. In brief, human PTPN9 and DUSP9 were cloned into a pET28a vector (Merk Millipore, Darmstadt, Germany) containing a hexahistidine (His6) tag or a maltose-binding protein (MBP) tag in its N-terminus (see Supplementary Materials). Recombinant genes were separately transformed into Escherichia coli Rosetta (DE3) (Merk Millipore, Darmstadt, Germany), and the overexpression of each gene was induced via the addition of 0.1 mM IPTG (Ducherfa Biochemie, Haarlem, RV, USA). After 16 h of incubation at 18 °C, cell pellets were obtained via centrifugation (3570× g at 4 °C for 15 min), resuspended in lysis buffer (50 mM Tris, pH: 7.5, 500 mM NaCl, 5% glycerol, 0.025% 2-mercaptoethanol, and 1 mM phenyl-methylsulfonyl fluoride (PMSF)), and lysed by ultrasonication. Subsequently, cell lysates were centrifuged at 29,820× g for 30 min at 4 °C; then, the supernatant was collected and incubated with a cobalt affinity resin (TALON® Metal Affinity Resin, Takara Korea, Seoul, Korea). After 1 h of incubation at 4 °C, the desired proteins were eluted by adding the lysis buffer supplemented with 100 mM imidazole. Samples were stored at –80 °C until use.
(§4) The enzymatic activities of purified PTPN9 and DUSP9 were measured using 6,8-difluoro-4-methylumbelliferyl phosphate (DiFMUP), the most widely used fluorogenic PTP substrate in the literature. To determine KM values, PTPN9 (0.15 nM) and DUSP9 (200 nM) were added to a reaction buffer (20 mM Bis-tris, pH: 7.0, 150 mM NaCl, 2.5 mM dithiothreitol (DTT), and 0.01% Triton X-100) containing DiFMUP (800, 400, 200, 100, 50, 25, 12.5, or 6.25 μM) in a 96-well black plate. The final reaction volume was 100 µL. The fluorescence intensity was continuously monitored for 10 min (Ex/Em = 355/460 nm) on a Victor™ X4 multilabel plate reader (Perkin Elmer, Norwalk, CT, USA). KM values were obtained using Lineweaver–Burk plots analysis.
(§5) To evaluate the enzyme inhibitory effects of GA and its analogs, 10 µl of the enzyme stock solution (1.5 nM PTPN9 and 2 µM DUSP9) in the reaction buffer was added into the mixture of DiFMUP (to a final concentration of 220 µM and 90 µM for PTPN9 and DUSP9, respectively) and each compound (to a final concentration of 50 µM and 20 µM for PTPN9 and DUSP9, respectively) was added to the reaction buffer. Enzyme activity was measured as described above. Half-inhibitory concentration (IC50) values were determined under similar conditions, except for the concentrations of the inhibitors (200, 100, 50, 25, 12.5, 6.25, or 3.125 µM for PTPN9 and 25, 12.5, 6.25, 3.125, 1.563, 0.782, or 0.391 µM for DUSP9). The dose-dependent curve was fitted to the four-parameter logistic regression equation, (y = a + (b – a)/(1 + (x/c)^d), to obtain IC50 values using the Kaleida Graph software Ver. 4.1.3. (Synergy Software Inc, PA, USA).

DUSP9 = molecular target: T2, DUSP9 (Homo sapiens, UniProt Q99956); assay: DUSP9 enzyme inhibition with DiFMUP substrate; assay type: biochemical; conditions: DiFMUP 90 µM, DUSP9 200 nM; NA: no activity
T2 construct: made in house; host or cells: Escherichia coli Rosetta (DE3)
T2 sequence (Q99956 1-384): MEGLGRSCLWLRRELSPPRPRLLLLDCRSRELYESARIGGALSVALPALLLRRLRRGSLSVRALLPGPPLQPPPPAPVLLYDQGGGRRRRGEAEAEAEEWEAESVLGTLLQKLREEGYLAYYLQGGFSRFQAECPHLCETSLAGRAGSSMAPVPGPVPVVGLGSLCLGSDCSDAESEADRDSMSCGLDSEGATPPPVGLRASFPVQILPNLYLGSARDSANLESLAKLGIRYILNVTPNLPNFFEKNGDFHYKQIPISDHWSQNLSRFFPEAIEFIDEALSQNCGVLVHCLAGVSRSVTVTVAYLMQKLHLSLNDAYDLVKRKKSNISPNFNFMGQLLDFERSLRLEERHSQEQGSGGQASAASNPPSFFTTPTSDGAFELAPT
Experimental: as §1, §2, §3, §4, §5

| SMILES | IC50 (PTPN9) [µM] | IC50 (DUSP9) [µM] |
| --- | --- | --- |
| CCCCCCCCCCCCCOc1cccc(O)c1C(=O)O [Compound 1e] | 18.31 ± 0.17 | 6.4 ± 0.87 |
| CCCCCCCCCCCCCCCOc1cccc(O)c1C(=O)O [Compound 1f] | 10.2 ± 0.52 | 5.87 ± 0.55 |

— paper PMC8999917, “Structure–Activity Relationship of Synthetic Ginkgolic Acid Analogs for Treating Type 2 Diabetes by PTPN9 Inhibition” (International Journal of Molecular Sciences, 2022)
